From patent publication US6410558B1, “Fungicides for the control of take-all disease of plants” (Monsanto Technology LLC, priority 1991, dated 2002) come the findings set out here.

A value given as a limit tells only on which side of the number the result lay.

In one experiment the test system is Ggt. Nature of the experiment: In vivo Assay: control of Ggt on wheat grown in pots of Ggt-infested soil, root disease rating. Also noted: species or system Gaeumannomyces graminis var. tritici. The conditions noted are these: Gaeumannomyces graminis, 672 h; 0.5 mg active ingredient per pot; 'Bergen' or 'Anza' wheat in Ggt-infested soil; after four weeks; vs untreated control; read-out: In vivo, percent disease control. As to the method:
Compounds are tested for control of Ggt on ‘Bergen’ or ‘Anza’ varieties of wheat grown in 3-inch square pots containing soil infested with Ggt. The infestation is accomplished by mixing the soil with an inoculum prepared by growing Ggt on ¼ strength potato dextrose agar (4.875 g potato dextrose agar, 5.0 g Bacto agar, 500 mL distilled, deionized water) in plates and using plugs from the plates to infest sterile oats (400 cc whole oats, 350 mL deionized water, autoclaved). After a one-month incubation period at room temperature, the oats are dried and mixed with the soil at 4% v/v. Four wheat seeds are placed on top of the soil in each pot. The test compounds are prepared as an 1:9 acetone/water v/v solution containing 0.18% Tween® 20 to provide a treatment rate of 0.5 mg active ingredient per pot, treated with 3 mL test solution per pot. Five pots are used for each treatment level and the controls, which are untreated, inoculated and non-inoculated pots. After one hour drying time, the seeds are covered with more of the appropriate soil and a layer of vermiculite. The pots are placed in a growth chamber and watered each day. After four weeks, each pot is evaluated for evidence of disease by examination of the seminal roots of each plant under a dissecting microscope. A 0 to 5 rating scale having the following meanings is used:
0=no runner hyphae or lesions present
1=runner hyphae and a few small lesions present on <10% of root system
2=runner hyphae and small lesions present on 10-25% of root system
3=runner hyphae and lesions present on 25-50% of root system
4=runner hyphae and many, large, coalescing lesions on >50% of root system
5=root system and culm completely inundated with lesions and runner hyphae
From each set of five replicates a high and low score is eliminated and a replicate mean is calculated by the average of the remaining three scores. This mean score is then compared to the untreated control score and a percent disease control is calculated.

Experiment [1] deals with Gaeumannomyces graminis var. tritici (Ggt). The experiment can be described thus: In vitro Assay: mycelial growth of Ggt on minimal media agar plates containing test compound. It is filed as cell-based. The conditions noted are these: Gaeumannomyces graminis, dark, 19-20° C., 4 to 5 days, diameter of mycelial growth; for inhibition at 0.1 ppm: 0.1 ppm in minimal media agar, read-out: In vitro (ppm) 0.1, Percent Inhibition; for inhibition at 1 ppm: 1 ppm in minimal media agar, read-out: In vitro (ppm) 1, Percent Inhibition; for inhibition at 10 ppm: 10 ppm in minimal media agar, read-out: In vitro (ppm) 10, Percent Inhibition. In outline:
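Compounds added from acetone stock into minimal (Czapek Dox) agar; plates inoculated with three 4-mm Ggt plugs, incubated in dark at 19-20° C for 4 to 5 days. Colony diameter measured; Percent Inhibition = [1-((treated mm −4)/(control mm −4))]×100.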

Take `CCNC(=O)c1c([Si](C)(C)C)ccc(Br)c1Cl` [Example 220, 3-Bromo-2-chloro-N-ethyl-6-(trimethylsilyl)benzamide]: the pest or weed control at 0.5 mg/pot in the experiment on Ggt stood at 97%. Moreover, in experiment [1], the inhibition at 0.1 ppm was 75%, the inhibition at 1 ppm was determined as 100% and the inhibition at 10 ppm was 100%.

For the molecule `CCNC(=O)c1c(C)cccc1[Si](C)(C)C` [Example 48, N-Ethyl-2-methyl-6-(trimethylsilyl)benzamide], in the experiment with Ggt, the pest or weed control at 0.5 mg/pot was 97%. For the same molecule, in experiment [1], the inhibition at 0.1 ppm was determined as 74%, the inhibition at 1 ppm stood at 100% and the inhibition at 10 ppm came to 100%.

Regarding `CC1CN(C(=O)c2c(Cl)cccc2[Si](C)(C)C)CC(C)O1` (stereo not drawn) [Example 130, N-[2-Chloro-6-(trimethylsilyl)benzoyl]-2,6-dimethylmorpholine], the pest or weed control at 0.5 mg/pot in the experiment on Ggt amounted to 1%. In experiment [1], the inhibition at 0.1 ppm amounted to 16%, the inhibition at 1 ppm is 13% and the inhibition at 10 ppm worked out at 39%.

For the molecule `CCNC(=O)c1cc(Cl)ccc1[Si](C)(C)C` [Example 213, 5-Chloro-N-ethyl-2-(trimethylsilyl)benzamide], the pest or weed control at 0.5 mg/pot with Ggt came out at 87%. For the same molecule, in experiment [1], the inhibition at 0.1 ppm came out at 9%, the inhibition at 1 ppm was 82% and the inhibition at 10 ppm was found to be 79%.

For the molecule `CCNC(=O)c1c(Cl)cccc1[Si](C)(C)CBr` [Example 210, 2-[(Bromomethyl)dimethylsilyl]-6-chloro-N-ethyl-benzamide], the pest or weed control at 0.5 mg/pot in the experiment with Ggt was 74%. Besides, in experiment [1], the inhibition at 0.1 ppm turned out to be 85%, the inhibition at 1 ppm turned out to be 88% and the inhibition at 10 ppm was determined as 94%.

As for `CCNC(=O)c1c(Cl)cccc1OC(C)(C)C` [Example 89, N-Ethyl-2-chloro-6-(1,1-dimethylethoxy)benzamide], the pest or weed control at 0.5 mg/pot in the experiment on Ggt was found to be 96%. In experiment [1], the inhibition at 0.1 ppm turned out to be 19%, the inhibition at 1 ppm was found to be 85% and the inhibition at 10 ppm is 100%.

`CCNC(=O)c1c([Si](C)(C)C)sc2c1CCCC2` [Example 270, N-Ethyl-2-(trimethylsilyl)-4,5,6,7-tetrahydrobenzo[B]thiophene-3-carboxamide]: the pest or weed control at 0.5 mg/pot in the experiment with Ggt was 87%. Besides, in experiment [1], the inhibition at 0.1 ppm was found to be 96%, the inhibition at 1 ppm was 100% and the inhibition at 10 ppm amounted to 100%.

As for `CCN(CC)C(=O)c1c(Br)ccc(F)c1[Si](C)(C)C` [Example 37, 6-Bromo-N,N-diethyl-3-fluoro-2-(trimethylsilyl)benzamide], the pest or weed control at 0.5 mg/pot in the experiment with Ggt was determined as 83%. Further, in experiment [1], the inhibition at 0.1 ppm was 17%, the inhibition at 1 ppm is 63% and the inhibition at 10 ppm amounted to 87%.

Regarding `CCN(CC)C(=S)c1c(C)cccc1[Si](C)(C)C` [Example 51, N,N-Diethyl-2-methyl-6-(trimethylsilyl)thiobenzamide], the pest or weed control at 0.5 mg/pot in the experiment with Ggt was 77%. In experiment [1], the inhibition at 0.1 ppm was less than 0%, the inhibition at 1 ppm is 19% and the inhibition at 10 ppm came to 100%.

With `CCN(CC)C(=O)c1c(C)cccc1[Si](C)(C)C` [Example 3, N,N-Diethyl-2-methyl-6-(trimethylsilyl)benzamide], the pest or weed control at 0.5 mg/pot with Ggt amounted to 100%. Also, in experiment [1], the inhibition at 0.1 ppm stood at 19%, the inhibition at 1 ppm amounted to 58% and the inhibition at 10 ppm came out at 75%.

`C=CCONC(=O)c1c([Si](C)(C)C)ccc(Cl)c1Cl` [Example 204, 2,3-Dichloro-N-(2-propenyloxy)-6-(trimethylsilyl)benzamide]: the pest or weed control at 0.5 mg/pot in the experiment on Ggt is 43%. Further, in experiment [1], the inhibition at 0.1 ppm was less than 0%, the inhibition at 1 ppm is less than 0% and the inhibition at 10 ppm stood at 74%.

For `CCN(C(=O)c1c(Cl)cccc1[Si](C)(C)C)C(C)C` [Example 18, 2-Chloro-N-ethyl-N-(1-methylethyl)-6-(trimethylsilyl)benzamide], the pest or weed control at 0.5 mg/pot in the experiment on Ggt was 97%. In experiment [1], the inhibition at 0.1 ppm was less than 0%, the inhibition at 1 ppm was less than 0% and the inhibition at 10 ppm was determined as 100%.
